Experimental data published in the NIST ThermoML archive (doi:10.1016/j.tca.2013.11.010).
± gives the expanded uncertainty stated by the source.

Details: for surface tension liquid-gas: Drop volume; for viscosity / speed of sound / mass density: 101.33 kPa; for viscosity / speed of sound / mass density / vapor or sublimation pressure: Liquid; for viscosity: Capillary tube (Ostwald / Ubbelohde) method; for speed of sound: Sing-around technique in a fixed-path interferometer; for mass density: Vibrating tube method; for vapor or sublimation pressure: Ebulliometric method (Recirculating still)

`CCOC(=O)C(C)O` (racemic) [DL-ethyl lactate] showed a surface tension liquid-gas (278.15 K) of 31.47 ± 0.35 mN/m, a viscosity (278.15 K) of 4.479 ± 0.1 mPa·s and a speed of sound (278.15 K) of 1354.5 ± 2.3 m/s. It also gave a mass density (278.15 K) of 1050.05 ± 0.94 kg/m3, a surface tension liquid-gas (280.65 K) of 31.21 ± 0.35 mN/m and a viscosity (280.65 K) of 4.091 ± 0.094 mPa·s. For the same molecule, the speed of sound (280.65 K) was 1345.2 ± 2.3 m/s, the mass density (280.65 K) was 1047.37 ± 0.94 kg/m3 and the surface tension liquid-gas (283.15 K) was 30.94 ± 0.35 mN/m. For the same molecule, the viscosity (283.15 K) was 3.75 ± 0.086 mPa·s, the speed of sound (283.15 K) was 1335.7 ± 2.3 m/s and the mass density (283.15 K) was 1044.68 ± 0.93 kg/m3. The surface tension liquid-gas (285.65 K) was 30.79 ± 0.35 mN/m, the viscosity (285.65 K) was 3.451 ± 0.079 mPa·s and the speed of sound (285.65 K) was 1326.2 ± 2.3 m/s. The mass density (285.65 K) was 1041.96 ± 0.92 kg/m3, the surface tension liquid-gas (288.15 K) was 30.43 ± 0.34 mN/m and the viscosity (288.15 K) was 3.184 ± 0.073 mPa·s. The speed of sound (288.15 K) was 1316.8 ± 2.3 m/s, the mass density (288.15 K) was 1039.26 ± 0.92 kg/m3 and the surface tension liquid-gas (290.65 K) was 30.18 ± 0.34 mN/m. It also gave a viscosity (290.65 K) of 2.947 ± 0.068 mPa·s, a speed of sound (290.65 K) of 1307.5 ± 2.3 m/s and a mass density (290.65 K) of 1036.54 ± 0.91 kg/m3. For the same molecule, the surface tension liquid-gas (293.15 K) was 29.95 ± 0.34 mN/m, the viscosity (293.15 K) was 2.735 ± 0.063 mPa·s and the speed of sound (293.15 K) was 1298.3 ± 2.3 m/s. For the same molecule, the mass density (293.15 K) was 1033.82 ± 0.91 kg/m3, the surface tension liquid-gas (295.65 K) was 29.67 ± 0.34 mN/m and the viscosity (295.65 K) was 2.546 ± 0.058 mPa·s. It also gave a speed of sound (295.65 K) of 1289 ± 2.3 m/s, a mass density (295.65 K) of 1031.09 ± 0.9 kg/m3 and a surface tension liquid-gas (298.15 K) of 29.49 ± 0.33 mN/m. The viscosity (298.15 K) was 2.375 ± 0.055 mPa·s, the speed of sound (298.15 K) was 1279.7 ± 2.3 m/s and the mass density (298.15 K) was 1028.37 ± 0.9 kg/m3. It also gave a surface tension liquid-gas (300.65 K) of 29.23 ± 0.33 mN/m, a viscosity (300.65 K) of 2.221 ± 0.051 mPa·s and a speed of sound (300.65 K) of 1270.5 ± 2.3 m/s. The mass density (300.65 K) was 1025.63 ± 0.89 kg/m3, the surface tension liquid-gas (303.15 K) was 28.88 ± 0.33 mN/m and the viscosity (303.15 K) was 2.081 ± 0.048 mPa·s. The speed of sound (303.15 K) was 1261.2 ± 2.3 m/s, the mass density (303.15 K) was 1022.89 ± 0.88 kg/m3 and the “vapor or sublimation pressure” value (303.15 K) was 0.436 ± 0.1 kPa. For the same molecule, the surface tension liquid-gas (305.65 K) was 28.64 ± 0.33 mN/m, the viscosity (305.65 K) was 1.955 ± 0.045 mPa·s and the speed of sound (305.65 K) was 1251.9 ± 2.3 m/s. For the same molecule, the mass density (305.65 K) was 1020.15 ± 0.88 kg/m3, the surface tension liquid-gas (308.15 K) was 28.42 ± 0.32 mN/m and the viscosity (308.15 K) was 1.838 ± 0.042 mPa·s. For the same molecule, the speed of sound (308.15 K) was 1242.6 ± 2.3 m/s, the mass density (308.15 K) was 1017.4 ± 0.87 kg/m3 and the “vapor or sublimation pressure” value (308.15 K) was 0.603 ± 0.1 kPa. For the same molecule, the surface tension liquid-gas (310.65 K) was 28.12 ± 0.32 mN/m, the viscosity (310.65 K) was 1.733 ± 0.04 mPa·s and the speed of sound (310.65 K) was 1233.3 ± 2.3 m/s. It also gave a mass density (310.65 K) of 1014.64 ± 0.87 kg/m3, a surface tension liquid-gas (313.15 K) of 27.84 ± 0.32 mN/m and a viscosity (313.15 K) of 1.636 ± 0.038 mPa·s. The speed of sound (313.15 K) was 1224 ± 2.3 m/s, the mass density (313.15 K) was 1011.88 ± 0.86 kg/m3 and the “vapor or sublimation pressure” value (313.15 K) was 0.829 ± 0.1 kPa. It also gave a surface tension liquid-gas (315.65 K) of 27.46 ± 0.31 mN/m, a viscosity (315.65 K) of 1.547 ± 0.036 mPa·s and a speed of sound (315.65 K) of 1214.7 ± 2.3 m/s. For the same molecule, the mass density (315.65 K) was 1009.12 ± 0.86 kg/m3, the surface tension liquid-gas (318.15 K) was 27.19 ± 0.31 mN/m and the viscosity (318.15 K) was 1.466 ± 0.034 mPa·s. The speed of sound (318.15 K) was 1205.4 ± 2.3 m/s, the mass density (318.15 K) was 1006.34 ± 0.85 kg/m3 and the “vapor or sublimation pressure” value (318.15 K) was 1.142 ± 0.1 kPa. For the same molecule, the surface tension liquid-gas (320.65 K) was 26.92 ± 0.31 mN/m, the viscosity (320.65 K) was 1.391 ± 0.032 mPa·s and the speed of sound (320.65 K) was 1196.1 ± 2.3 m/s. The mass density (320.65 K) was 1003.57 ± 0.84 kg/m3, the surface tension liquid-gas (323.15 K) was 26.65 ± 0.31 mN/m and the viscosity (323.15 K) was 1.321 ± 0.03 mPa·s. For the same molecule, the speed of sound (323.15 K) was 1186.8 ± 2.3 m/s, the mass density (323.15 K) was 1000.78 ± 0.84 kg/m3 and the “vapor or sublimation pressure” value (323.15 K) was 1.536 ± 0.1 kPa. The surface tension liquid-gas (325.65 K) was 26.29 ± 0.3 mN/m, the viscosity (325.65 K) was 1.255 ± 0.029 mPa·s and the speed of sound (325.65 K) was 1177.6 ± 2.3 m/s. For the same molecule, the mass density (325.65 K) was 997.99 ± 0.83 kg/m3 and the surface tension liquid-gas (328.15 K) was 26.08 ± 0.3 mN/m.
